# Reference: US20210198259A1, “HETEROCYCLIC DERIVATIVES AND USE THEREOF” (C&C RESEARCH LABORATORIES, priority 2018, published 2021)
# Experiments:
# [1] = target: T1, human histamine 4 receptor (hH4R) (Homo sapiens, UniProt Q9H3N8); assay: Binding affinity of human histamine 4 receptor (hH4R), [3H] histamine displacement; settings: [3H] labeled histamine, hH4R-overexpressed cell membrane
# T1 construct: purchased Multispan
# Protocol: The compounds prepared in the above Examples, the compound of Example 55 of International Publication No. WO 2010/030785 and the compound of Example 4 of International Publication No. WO 2013/048214 were diluted by 1,000 fold (v/w) with DMSO, and then 1 mL of the diluted compound solution was mixed with 99 mL of the analysis buffer solution (50 mM tris-HCl pH 7.4, 5 mM EDTA) to obtain concentration of 1 μM. […] of the prepared compound solution was transferred to each well of a 96-well plate, and then 20 mL of 100 μM histamine diluted with analysis buffer solution and 1% DMSO were transferred to each well to calculate non-specific binding and total binding degree. 15 μg of human histamine 4 receptor-overexpressed cell membrane (Multispan) was diluted into […] of analysis buffer solution and that was transferred to each well. [^3H] labeled histamine (PerkinElmer) was diluted into 10 nM concentration, 20 mL was allocated in each well, and then it was kept in a 27° C. incubator for 30 minutes. After the reaction, 100 mL of the mixture was transferred to a glass fiber plate in which 0.5% polyethylene amine was pre-soaked, and then non-binding [^3H] labeled histamine was removed in vacuum. After 6 times washing with 200 mL of washing buffer solution (50 mM tris-HCl, pH 7.4), the plate was dried in a 37° C. oven for 18 hours. […] of betaScint cocktail solution was added to each well, and after 10 minutes CPM (count per minute) value of [^3H] labeled histamine was measured by the use of Micro beta2™. The binding affinity (% inhibition) of the human histamine 4 receptor for the compounds of the present invention was analyzed by an Excel program, and the results of analysis are represented in Table 1.
# [2] = Test for pharmacokinetics in ICR mice (oral); assay type: in vivo; settings: 50 mg/kg, ICR mouse, 5 mg/mL solution at 10 mL/kg, plasma
# Protocol: As the administration solution for mice of the compounds prepared in the above
# Examples, the compound of Example 55 of International Publication No. WO 2010/030785 and the compound of Example 4 of International Publication No. WO 2013/048214, 20% hydroxypropyl-β-cyclodextrin solution (99.75%) and 2N HCl (0.25%) were added sequentially to make 5 mg/mL. Provided that in the case of the compound of Example 10, 99.5% of 20% hydroxypropyl-β-cyclodextrin solution and 0.5% of 2N HCl […] were added.
# The weight of each ICR mouse was properly 20-30 g. Dosage of the compound of the present invention was 10 mL/kg, and administered orally using Zonde. Blood collection was performed at 0.5, 1, 2, 4, 7 and 24 hours by orbital venous blood collection using a capillary tube coated with an anticoagulant, and then plasma was isolated using a centrifuge and kept in a freezer.
# Plasma collected from animals and standard concentration material were pre-treated using solid-phase extraction, and concentration of the compound of the invention was determined using a liquid chromatography mass spectrometer (Agilent HPLC, API-4000 Qtrap). According to the resulting concentration value, the pharmacokinetics parameter was found using WinNonlin (Version 7.0) and half-life (t1/2), maximum blood concentration (Cmax) and area under the curve (AUCall) are represented in Table 2.
# ICR mice = assay: Histamine-induced itching model in ICR mice; assay type: in vivo, mouse; settings: 50 mg/kg oral, scratches counted for 20 minutes
# Protocol: Female, ICR mice (8 weeks old) were purchased from OrientBio Co., Ltd. The animals were housed under conditions of controlled temperature (23±3° C.), humidity (50±5%) and lighting with food and water available ad libitum. Water and food were stopped 1 hour before the experiment.
# For easy intradermal injection of pruritogen (histamine, dissolved in saline injection solution to make the concentration of 300 nmol per 40 μL) the hair was clipped using clippers (8000AD, THRIVE) over the rostral part of the back 24 hours before the experiment under inhalation anesthesia with isoflurane. Mice (n=10 per group) were divided into 5 groups (normal group, control group and 3 experimental groups). […] At the end of the filming, the number of scratches of the test animals was counted during 20 minutes after histamine administration using the recorded video. The number of scratches was counted a series of actions from scratching with the rear foot of the animal to the time of taking the rear foot to the mouth as one time (J. Allergy Clin. Immunol. 2007, 19(1), 176-183). All data were analyzed by using Excel and Prism, and the number of scratching of each group is expressed as the mean±S.E.M. The inhibitory effect of compounds is shown as a percentage of the maximal response to histamine (100% control group). Statistical analysis was analyzed using one-way ANOVA with Dunnett test. […]
inhibition at 1 µM [1] [%],AUC [2] [ng·h/mL],Cmax [2] [ng/mL],half-life [2] [h],Human histamine 4 receptor (hH4R) binding affinity (% inhibition at 1 μM) [1] [%],Compound,Inhibitory rate (%) After 30 minutes (ICR mice; histamine given 30 minutes after dosing) [%],Inhibitory rate (%) After 7 hours (ICR mice; histamine given 7 hours after dosing) [%]
79.7,8650,2280,3.81,–,"CN1CCN(C2=Nc3ncc(Br)cc3N3CC(=O)N=C23)CC1 [Example 1, 8-bromo-4-(4-methylpiperazin-1-yl)imidazo[1,2-a]pyrido[2,3-e]pyrazin-2(1H)-one]",–,–
98.1,920,360,2.04,–,"CN1CCN(C2=Nc3ccc([N+](=O)[O-])cc3N3CC(=O)N=C23)CC1 [Example 10, 4-(4-methylpiperazin-1-yl)-8-nitroimidazo[1,2-a]quinoxalin-2(1H)-one]",–,–
101,1390,570,1.73,–,"CN1CCN(C2=Nc3ccc(Br)cc3N3CC(=O)N=C23)CC1 [Example 12, 8-bromo-4-(4-methylpiperazin-1-yl)imidazo[1,2-a]quinoxalin-2(1H)-one]",–,–
–,30500,2500,–,95.8,"CNC1CN(C2=Nc3ccc(Br)cc3N3CC(=O)N=C23)C1 [Example 13, 8-bromo-4-(3-(methylamino)azetidin-1-yl)imidazo[1,2-a]quinoxalin-2(1H)-one]",131,99.0
